Columns and labels:
[1] = test system: SW620, human colon carcinoma; assay: MTT cell viability, SW620; type: cell-based; settings: 48 h
Procedure: (§1) Both melanoma and colon cancer are tumor types tightly connected with inflammation, while the expression of COX-2 in the selected cell lines was highly variable. Since a lot of discrepancies were found in the literature concerning the expression of this enzyme[5],[48]–[53], both COX-1 and COX-2 expression was analyzed by Western blot. […] The cells were treated with a wide range of doses of 4a–c, 5, and 6 for 48 h and cell viability was determined by MTT (3-(4,5-dimethylthiazol-2-yl)-2,5-diphenyltetrazolium bromide) and CV (crystal violet) assays. The obtained IC50 values were similar for both assays (Table 1).
(§2) Reagents were obtained from Sigma (St. Louis, MO) unless indicated otherwise. […]
S ystems, Minneapolis, MN USA). […] After being detached b y tr ypsinization, cells were seeded in defined number as follows: 2.5 × 10^3 cells/well in 96-well plates for viability assessment and 2 × 10^4 cells/well in 24-well plates for flow cytometry. […]
(§3) Before treatment, non- adherent cells were removed. Compounds 4a- c, 5 and 6 were dissolved in DMSO and stored at −20 °C for a m onth. Working solutions were freshl y prepared in 10% FCS-RPMI-1640. Controls were treated with culture medium containing the equivalent […]
(§4) 3.2. Cell viability tests.
(§5) The number of viable cel ls in culture was estimated by the MTT (3-(4,5- dimethylthiazol- 2-yl ) - 2,5- diphenyltetrazolium bromide) and CV (crystal violet) tests. Cells were incubated in the presence of compounds 4a- c, 5 and 6 for 48 h, then the viability was measured as described.4 […]
(§6) The results were ex pressed as a p er centage of a v alue obtained for the untr eated control cells that was arbitrarily set to be 100%. A non- linear regression analysis of obtained results was done b y using Gr aphPad Prism software to calculat e IC50 values. […]

[2] = test system: peritoneal resident macrophages; assay: CV cytotoxicity for isolated macrophages; type: cell-based, C57BL/6 mice; settings: crystal violet (CV) test
Procedure: (§7) Reagents were obtained from Sigma (St. Louis, MO) unless indicated otherwise. Annexin V - FITC (AnnV) was acquired from Biotium (Hayward, CA) and Apostat from R&D (R&D S ystems, Minneapolis, MN USA). […] After being detached b y tr ypsinization, cells were seeded in defined number as follows: 2.5 × 10^3 cells/well in 96-well plates for viability assessment and 2 × 10^4 cells/well in 24-well plates for flow cytometry. Peritoneal resident […]
(§8) for Biolo gical Research “Siniša Stanković” b y peritoneal lav age with an ice- cold phosphate buffer solution (PBS). The handling of animals and protocol for obtaining cells is in agreement with the rules of the European Union and approved by the Institutional Animal Care and Use Committee at IBISS (02- 09/1 6). Cells were counted and seeded in 96-well plates and incubat ed overnight. Before treatment, non- adherent cells were removed. Compounds 4a- c, 5 and 6 were dissolved in DMSO and stored at −20 °C for a m onth. Working solutions were freshl y prepared in 10% FCS-RPMI-1640. Controls were treated with culture medium containing the equivalent […]
as §4, §5, §6
14 Ligand molecules and one […]
protocol published earlier.16
Cell line Selectivity index

[3] = test system: HCT116, human colon carcinoma; assay: MTT cell viability, HCT116; type: cell-based; settings: 48 h
Procedure: as §1
as §7, with “cytometry.” for “cytometry. Peritoneal resident”
as §3, with “Committee at IBISS (02- 09/1 6). Cells were counted and seeded in 96-well plates and incubat ed overnight. Before” for “Before”
as §4, §5, §6

518A2, human melanoma = assay: MTT cell viability, 518A2; type: cell-based; settings: 48 h
Procedure: as §1
as §7, with “cytometry.” for “cytometry. Peritoneal resident”
as §3, with “Committee at IBISS (02- 09/1 6). Cells were counted and seeded in 96-well plates and incubat ed overnight. Before” for “Before”
as §4, §5, §6

[4] = test system: B16, mouse solid melanoma; assay: CV (crystal violet) cell viability, B16; type: cell-based; settings: for IC50: 48 h; for Selectivity index B16: IC50 macrophages / IC50 cancer
Procedure: as §1, §7, §8, §4, §5, §6

human recombinant COX-2 = target: T1, human recombinant COX-2 (Homo sapiens, UniProt P35354); assay: COX Fluorescent Inhibitor Screening Assay, COX-2; type: biochemical; settings: human recombinant COX-2, Cayman kit 700100
T1 construct: purchased Cayman Chemical Item No. 700100 (assay kit)
T1 sequence (P35354 18-604): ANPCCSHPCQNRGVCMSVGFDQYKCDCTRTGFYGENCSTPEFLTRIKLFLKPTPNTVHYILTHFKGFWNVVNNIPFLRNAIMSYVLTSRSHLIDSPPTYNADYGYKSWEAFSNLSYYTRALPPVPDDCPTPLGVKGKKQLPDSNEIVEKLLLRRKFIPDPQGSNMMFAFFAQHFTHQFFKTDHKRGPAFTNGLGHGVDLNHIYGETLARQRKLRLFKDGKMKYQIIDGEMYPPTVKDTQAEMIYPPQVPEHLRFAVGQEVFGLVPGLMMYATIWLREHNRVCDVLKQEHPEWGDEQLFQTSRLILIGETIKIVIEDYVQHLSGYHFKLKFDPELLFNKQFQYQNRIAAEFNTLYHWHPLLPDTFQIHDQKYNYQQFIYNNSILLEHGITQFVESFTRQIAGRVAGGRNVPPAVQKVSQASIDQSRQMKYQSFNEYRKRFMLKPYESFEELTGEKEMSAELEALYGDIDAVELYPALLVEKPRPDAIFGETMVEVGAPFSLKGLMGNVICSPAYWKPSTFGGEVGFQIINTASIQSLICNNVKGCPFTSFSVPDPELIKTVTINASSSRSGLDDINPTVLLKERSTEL
Procedure: The synthesized compounds were tested in vitro for their potential to inhibit ovine COX-1 and human recombinant COX-2.
*All compounds were measured with the Cytation 5 plate reader and the "COX Fluorescent Inhibitor […]
chemi cals, USA) " according to the manufacturer's
Error bars indicate standard error mean (SEM) obtained from two measurements at each concentration.
(1 picture or pasted object on this page, not shown here)

[5] = test system: B16F10, mouse metastatic melanoma; assay: MTT cell viability, B16F10; type: cell-based; settings: 48 h
Procedure: as §1
as §7, with “cytometry.” for “cytometry. Peritoneal resident”
as §3, with “Committee at IBISS (02- 09/1 6). Cells were counted and seeded in 96-well plates and incubat ed overnight. Before” for “Before”
as §4, §5, §6

[6] = test system: SW480, human colon carcinoma; assay: CV (crystal violet) cell viability, SW480; type: cell-based; settings: for IC50: 48 h; for Selectivity index SW480: IC50 macrophages / IC50 cancer
Procedure: as §1, §2
S ystems, Minneapolis, MN USA). […] After being detached b y tr ypsinization, cells were seeded in defined number as follows: 2.5 × 10^3 cells/well in 96-well plates for viability assessment and 2 × 10^4 cells/well in 24-well plates for flow cytometry. Peritoneal resident […]
as §8, §4, §5, §6

4-[4-(hydroxymethyl)phenyl]-3-(1,2-dicarba-closo-dodecaboranyl)furan-2(5H)-one [Compound 4c]
IC50 [1]: 35.7 ± 0.85 µM
IC50 [2]: 66.2 ± 1.91 µM
IC50 [3]: 22.2 ± 0.95 µM
IC50 (518A2, human melanoma): 36.35 ± 0.21 µM
IC50 [4]: 30.8 ± 3.22 µM
Selectivity index B16 [4]: 2.1
IC50 (human recombinant COX-2): > 100 µM
IC50 [5]: 28 ± 2.62 µM
IC50 [6]: 26.8 ± 2.81 µM
Selectivity index SW480 [6]: 2.5

4-[4-(methylnitrooxy)phenyl]-3-(1,2-dicarba-closo-dodecaboranyl)furan-2(5 H)-one [Compound 5]
IC50 [1]: 10.5 ± 0.14 µM
IC50 [2]: 37.1 ± 1.73 µM
IC50 [3]: 8.9 µM
IC50 (518A2, human melanoma): 5.15 ± 0.64 µM
IC50 [4]: 11.5 ± 1.05 µM
Selectivity index B16 [4]: 3.2
IC50 (human recombinant COX-2): > 100 µM
IC50 [5]: 7.95 ± 3.06 µM
IC50 [6]: 8.6 ± 0.21 µM
Selectivity index SW480 [6]: 4.3

4-[4-(methylsulfonyl)phenyl]-3-(1,2-dicarba-closo-dodecaboranyl)furan-2(5H)-one [Compound 4b]
IC50 [1]: 19.2 ± 0.78 µM
IC50 [2]: 65.7 ± 5.75 µM
IC50 [3]: 42.5 ± 1.42 µM
IC50 (518A2, human melanoma): 13.8 ± 0.21 µM
IC50 [4]: 22.2 ± 0.65 µM
Selectivity index B16 [4]: 3.0
IC50 (human recombinant COX-2): > 100 µM
IC50 [5]: 27.3 ± 2.82 µM
IC50 [6]: 35.9 µM
Selectivity index SW480 [6]: 1.8

4-phenyl-3-(1,2-dicarba-closo-dodecaboranyl)furan-2(5 H)-one [Compound 4a]
IC50 [1]: 24.7 ± 0.42 µM
IC50 [2]: 48.8 ± 1.2 µM
IC50 [3]: 13.5 µM
IC50 (518A2, human melanoma): 18.9 ± 1.63 µM
IC50 [4]: 30.6 ± 3.86 µM
Selectivity index B16 [4]: 1.6
IC50 (human recombinant COX-2): > 100 µM
IC50 [5]: 24.3 ± 2.01 µM
IC50 [6]: 19 ± 1.91 µM
Selectivity index SW480 [6]: 2.6

R,S-7-(2-oxo-4-(4-sulfamoylphenyl)-2,5-dihydrofuran-3-yl)-7,8-dicarba-nido-dodeca-hydroundecaborate(–1) sodium [Compound 6]
IC50 [1]: > 50 µM
IC50 [3]: > 50 µM
IC50 (518A2, human melanoma): 36.9 ± 0.49 µM
IC50 [4]: > 50 µM
IC50 (human recombinant COX-2): 69.6 µM
IC50 [5]: > 50 µM
IC50 [6]: > 50 µM

Reference: publication PMC7076013 (Scientific Reports, 2020)
